Test results from patent publication US12187727B2, “Methods for antagonizing a melanocortin 4 receptor” (Pfizer Inc., priority 2020, dated 2025).
Like-named read-outs stand apart in the source and are kept apart here.

Biological target: human Melanocortin-4 receptor (MC4R) (Homo sapiens (Human), UniProt P32245)
Assay: Functional in vitro MC4R antagonist potency assay (cAMP HTRF in CHO cells)
Type: cell-based
Procedure: Example BB. Functional In Vitro MC4R Antagonist Potency Assay
The functional in vitro antagonist potency for test compounds was determined by monitoring intracellular cyclic adenosine monophosphate (cAMP) levels in Chinese hamster ovary (CHO—) cells stably expressing the human Melanocortin-4 receptor (MC4R). Following agonist activation, human MC4R associates with the G-protein complex causing the Gα subunit to exchange bound GDP for GTP, followed by dissociation of the Ga-GTP complex. The activated Gα subunit can couple to downstream effectors to regulate the levels of second messengers or cAMP within the cell. Thereby, determination of intracellular cAMP levels allows for pharmacological characterization. Intracellular cAMP levels are quantitated using a homogenous assay utilizing the Homogeneous Time-Resolved Fluorescence (HTRF) technology from CisBio. The method is a competitive immunoassay between native cAMP produced by cells and the cAMP labelled with the acceptor dye, d2. The two entities then compete for binding to a monoclonal anti-cAMP antibody labeled with cryptate. The specific signal is inversely proportional to the concentration of cAMP in the cells.
Test compounds were solubilized to 30 mM in 100% dimethyl sulfoxide (DMSO) and stored. […] The final compound concentration range in the assay was 400 nM to […], with a final DMSO concentration of 0.1%.
(95% O2: 5% CO2) overnight, with micro-clime lids (Labcyte, Cat No. LLS-0310). […] Cells were incubated with compound for 30 minutes at 37° C. (95% O2: 5% CO2) before addition of 5 μL EC80, agonist stimulation (200 nM α-melanocyte stimulating hormone, aMSH, Bachem) and another 30-minute incubation at 37° C. (95% O2: 5% CO2). Intracellular cAMP levels were quantified as per Cisbio's protocol (5 uL of D2 and then 5 uL Cryptate, incubated for 1-2 hours at room temperature).
Data expressed as nM cAMP were then normalized to control wells using Activity Base (IDBS). Zero percent effect (ZPE) was defined as nM of cAMP generated from ECK, agonist stimulation (200 nM aMSH). In the absence of an antagonist control compound, one hundred percent effect (HPE) was defined as nM of cAMP generated from assay buffer/vehicle only.

[1] = human MC4R in CHO cells, cAMP HTRF, 200 nM aMSH challenge, Kb from IC50 by Leff-Dougall equation, geometric mean, read-out: Kb (nM) Antagonist geometric
[2] = read-out: Kb (nM) Antagonist geometric mean

Sequence of human Melanocortin-4 receptor (MC4R) (P32245 whole entry): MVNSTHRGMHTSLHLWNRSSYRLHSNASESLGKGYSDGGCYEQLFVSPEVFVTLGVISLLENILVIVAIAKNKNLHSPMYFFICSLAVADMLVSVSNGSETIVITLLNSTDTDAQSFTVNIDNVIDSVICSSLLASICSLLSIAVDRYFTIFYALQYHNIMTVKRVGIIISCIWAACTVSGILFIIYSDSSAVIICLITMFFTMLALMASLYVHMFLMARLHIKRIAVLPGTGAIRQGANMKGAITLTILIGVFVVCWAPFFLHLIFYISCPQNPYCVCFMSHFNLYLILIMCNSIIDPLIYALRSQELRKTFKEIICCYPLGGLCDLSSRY

Compound	Kb [1]	Kb [2]	other results
COc1cc([C@@H](C)C(=O)N2CC[C@@]3(CCc4cc(-c5nc(C)n(C(F)F)n5)c(C)nc4N3)C2)c(F)cn1 [Example 188, (2R)-1-{(2S)-6-[1-(difluoromethyl)-5-methyl-1H-1,2,4-triazol-3-yl]-7-methyl-3,4-dihydro-1H-spiro[1,8-naphthyridine-2,3′-pyrrolidin]-1′-yl}-2-(5-fluoro-2-methoxypyridin-4-yl)propan-1-one]	0.086 nM		
COc1cc([C@@H](C)C(=O)N2CC[C@@]3(CCc4cc(-c5nc(C(F)(F)F)n(C)n5)c(C)nc4N3)C2)c(F)cn1 (single isomer, unassigned) [Example 92]		0.16 nM	
COc1cc([C@@H](C)C(=O)N2CC[C@@]3(CCc4cc(-c5ccccn5)c(C)nc4N3)C2)c(F)cn1 [Example 140, (2R)-2-(5-fluoro-2-methoxypyridin-4-yl)-1-[(2S)-7-methyl-6-(pyridin-2-yl)-3,4-dihydro-1H-spiro[1,8-naphthyridine-2,3′-pyrrolidin]-1′-yl]propan-1-one]	19 nM		
COc1cc([C@@H](C)C(=O)N2CC[C@@]3(CCc4cc(-c5ncc(Cl)cn5)c(C)nc4N3)C2)c(F)cn1 [Example 144, (2R)-1-[(2S)-6-(5-chloropyrimidin-2-yl)-7-methyl-3,4-dihydro-1H-spiro[1,8-naphthyridine-2,3′-pyrrolidin]-1′-yl]-2-(5-fluoro-2-methoxypyridin-4-yl)propan-1-one]	8.5 nM		
Cc1nc2c(cc1-c1cnn(C)c1)CC[C@@]1(CCN(C(=O)Cc3ccc(F)cc3)C1)N2 (stereo in doubt) [Example 89, 2-(4-fluorophenyl)-1-[7-methyl-6-(1-methyl-1H-pyrazol-4-yl)-3,4-dihydro-1H-spiro[1,8-naphthyridine-2,3′-pyrrolidin]-1′-yl]ethan-1-one]		> 40 nM	
COc1cc([C@@H](C)C(=O)N2CC[C@@]3(CCc4cc(-c5nccc(C(F)F)n5)c(C)nc4N3)C2)c(F)cn1 [Example 200, (2R)-1-{(2S)-6-[4-(difluoromethyl)pyrimidin-2-yl]-7-methyl-3,4-dihydro-1H-spiro[1,8-naphthyridine-2,3′-pyrrolidin]-1′-yl}-2-(5-fluoro-2-methoxypyridin-4-yl)propan-1-one]			Kb (cAMP HTRF in CHO cells expressing human MC4R, 200 nM aMSH, Kb by Leff-Dougall equation, geometric mean, read-out: Kb (nM) Antagonist geometric): 0.59 nM
COc1cc([C@@H](C)C(=O)N2CC[C@@]3(CCc4cc(-c5ncc(C(F)(F)F)cn5)c(C)nc4N3)C2)c(F)cn1 [Example 145, (2R)-2-(5-fluoro-2-methoxypyridin-4-yl)-1-{(2S)-7-methyl-6-[5-(trifluoromethyl)pyrimidin-2-yl]-3,4-dihydro-1H-spiro[1,8-naphthyridine-2,3′-pyrrolidin]-1′-yl}propan-1-one]	54 nM		
COc1ncc(F)c(C(C)C(=O)N2CC[C@@]3(CCc4cc(-c5nnn(C)n5)c(C)nc4N3)C2)n1 (single isomer, unassigned) [Example 134]	> 97 nM		

Now from value to compound, other results behind:

Kb [1]	Kb [2]	Compound	other results
	0.54 nM	COc1cc([C@@H](C)C(=O)N2CC[C@@]3(CCc4cc(-c5ncccn5)c(C)nc4N3)C2)cc(OC)n1 (single isomer, unassigned) [Example 83]	
	12 nM	COc1cc([C@@H](C)C(=O)N2CC[C@]3(CCc4cc(-c5ncccn5)c(C)nc4N3)C2)c(F)cn1 [Example 29, (2R)-2-(5-fluoro-2-methoxypyridin-4-yl)-1-[(2R)-7-methyl-6-(pyrimidin-2-yl)-3,4-dihydro-1H-spiro[1,8-naphthyridine-2,3′-pyrrolidin]-1′-yl]propan-1-one]	
	2.9 nM	Cc1nc2c(cc1-c1ncccn1)CC[C@@]1(CCN(C(=O)[C@H](C)c3ccc(F)c(F)c3)C1)N2 (single isomer, unassigned) [Example 50]	
0.16 nM		COc1cc(C(C)C(=O)N2CC[C@@]3(CCc4cc(-c5ncccn5)c(C)nc4N3)C2)c(C)cn1 (single isomer, unassigned) [Example 136]	
	> 54 nM	COc1cc([C@H](C)C(=O)N2CC[C@]3(CCc4cc(-c5ncccn5)c(C)nc4N3)C2)c(F)cn1 [Example 30, (2S)-2-(5-fluoro-2-methoxypyridin-4-yl)-1-[(2R)-7-methyl-6-(pyrimidin-2-yl)-3,4-dihydro-1H-spiro[1,8-naphthyridine-2,3′-pyrrolidin]-1′-yl]propan-1-one]	
